In patent US20240110130A1, “COMPOSITION” (Conopco, Inc., d/b/a UNILEVER, priority 2021, published 2024):

Test: Colour measurement (yellowing) of liquid laundry compositions comprising DHA
Type: physicochemical
Conditions: added to laundry liquid comprising DHA salt

O=S([O-])[O-].[K+].[K+] [sulphite, Potassium Sulfite]
effect on yellowing: reduces yellowing
